In US11702404B2, “GLP-1R modulating compounds” (priority 2019, dated 2023):

Assays:
[1] = Microsomal stability, human liver microsomes (predicted hepatic clearance); settings: predicted from in vitro microsomal stability data
[2] = molecular target: GLP-1R (Homo sapiens, UniProt P43220); assay: GLP-1R activation: cAMP increase in CHO cells stably expressing GLP-1R; format: cell-based; settings: cAMP increase, CHO cells stably expressing GLP-1R, 10 point dose response, 30 minutes incubation; read-out: EC50
Chain of GLP-1R (P43220 24-463): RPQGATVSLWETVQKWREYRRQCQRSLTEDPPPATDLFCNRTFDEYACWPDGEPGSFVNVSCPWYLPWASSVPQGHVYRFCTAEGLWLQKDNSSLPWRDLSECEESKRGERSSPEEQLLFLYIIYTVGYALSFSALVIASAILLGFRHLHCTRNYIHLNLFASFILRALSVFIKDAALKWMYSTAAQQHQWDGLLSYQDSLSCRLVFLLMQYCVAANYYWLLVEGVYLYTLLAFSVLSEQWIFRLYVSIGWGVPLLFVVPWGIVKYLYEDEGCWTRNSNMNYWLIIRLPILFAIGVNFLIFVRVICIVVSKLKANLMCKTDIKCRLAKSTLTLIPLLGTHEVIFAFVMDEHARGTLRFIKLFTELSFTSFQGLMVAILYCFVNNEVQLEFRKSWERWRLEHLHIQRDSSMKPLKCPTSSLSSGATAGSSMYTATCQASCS

| SMILES | Predicted Hepatic Clearance (Pred. Cl.) [1] [mL/min/kg] | EC50 [2] [nM] |
| --- | --- | --- |
| COCCn1c(Cc2ccc(-c3cccc(OCc4ccccc4SC)n3)cc2F)nc2ccc(C(=O)O)cc21 [Example 249, 2-(2-fluoro-4-(6-((2-(methylthio)benzyl)oxy)pyridin-2-yl)benzyl)-1-(2-methoxyethyl)-1H-benzo[d]imidazole-6-carboxylic acid] | 15.5 | 172 |
| COCCn1c(Cc2ccc(-c3cccc(OCc4ccc5c(c4)OC(F)(F)O5)n3)cc2F)nc2ccc(C(=O)O)cc21 [Example 250, 2-(4-(6-((2,2-difluorobenzo[d][1,3]dioxol-5-yl)methoxy)pyridin-2-yl)-2-fluorobenzyl)-1-(2-methoxyethyl)-1H-benzo[d]imidazole-6-carboxylic acid] | <1.83 | 11.7 |
| COCCn1c(Cc2ccc(-c3cccc(OCc4ccc(C#N)cc4F)n3)cc2C#Cc2cncnc2)nc2ccc(C(=O)O)cc21 [Example 254, 2-(4-(6-((4-cyano-2-fluorobenzyl)oxy)pyridin-2-yl)-2-(pyrimidin-5-ylethynyl)benzyl)-1-(2-methoxyethyl)-1H-benzo[d]imidazole-6-carboxylic acid] | <1.83 | 68.6 |
| COCCn1c(Cc2ccc(-c3cccc(OCc4ccc(C#N)cc4F)n3)cc2C#CC2CC2)nc2ccc(C(=O)O)cc21 [Example 257, 2-(4-(6-((4-cyano-2-fluorobenzyl)oxy)pyridin-2-yl)-2-(cyclopropylethynyl)benzyl)-1-(2-methoxyethyl)-1H-benzo[d]imidazole-6-carboxylic acid] | 5.83 | 1.43 |
| COCCn1c(Cc2ccc(-c3cccc(OCc4ccc(C#N)cc4F)n3)c(N)c2)nc2ccc(C(=O)O)cc21 [Example 259, 2-(3-amino-4-(6-((4-cyano-2-fluorobenzyl)oxy)pyridin-2-yl)benzyl)-1-(2-methoxyethyl)-1H-benzo[d]imidazole-6-carboxylic acid] | 3.3 | 66.9 |
| COCCn1c(Cc2ccc(-c3cccc(OCc4cc(F)c(C#N)cc4F)n3)cc2F)nc2ccc(C(=O)O)cc21 [Example 262, 2-(4-(6-((4-cyano-2,5-difluorobenzyl)oxy)pyridin-2-yl)-2-fluorobenzyl)-1-(2-methoxyethyl)-1H-benzo[d]imidazole-6-carboxylic acid] | <1.83 | 28.6 |
| CC1(C)COC1Cn1c(Cc2ccc(-c3cccc(OCc4ccc(C#N)cc4F)n3)cc2F)nc2ccc(C(=O)O)cc21 (stereo not drawn) [Example 264, 2-(4-(6-((4-cyano-2-fluorobenzyl)oxy)pyridin-2-yl)-2-fluorobenzyl)-1-((3,3-dimethyloxetan-2-yl)methyl)-1H-benzo[d]imidazole-6-carboxylic acid] | 4 | 26.2 |
| COCCn1c(Cc2ccc(-c3cccc(OCc4cccc5c4oc4ccccc45)n3)cc2F)nc2ccc(C(=O)O)cc21 [Example 265, 2-(4-(6-(dibenzo[b,d]furan-4-ylmethoxy)pyridin-2-yl)-2-fluorobenzyl)-1-(2-methoxyethyl)-1H-benzo[d]imidazole-6-carboxylic acid] | 5.67 | 2.08 |
| COCCn1c(Cc2ccc(-c3cccc(OCc4ccc(C5(C#N)CC5)cc4)n3)cc2F)nc2ccc(C(=O)O)cc21 [Example 266, 2-(4-(6-((4-(1-cyanocyclopropyl)benzyl)oxy)pyridin-2-yl)-2-fluorobenzyl)-1-(2-methoxyethyl)-1H-benzo[d]imidazole-6-carboxylic acid] | 6.17 | 51.4 |

Other lines, results leading:

| Predicted Hepatic Clearance (Pred. Cl.) [1] [mL/min/kg] | EC50 [2] [nM] | SMILES |
| --- | --- | --- |
| <1.83 | 3.13 | COCCn1c(Cc2ccc(-c3cccc(OCc4cc(F)c(C#N)cc4OC)n3)cc2F)nc2ccc(C(=O)O)cc21 [Example 251, 2-(4-(6-((4-cyano-5-fluoro-2-methoxybenzyl)oxy)pyridin-2-yl)-2-fluorobenzyl)-1-(2-methoxyethyl)-1H-benzo[d]imidazole-6-carboxylic acid] |
| <1.83 | 3.78 | COCCn1c(Cc2ccc(-c3cccc(OCc4ccc(F)cc4OC)n3)cc2F)nc2ccc(C(=O)O)cc21 [Example 252, 2-(2-fluoro-4-(6-((4-fluoro-2-methoxybenzyl)oxy)pyridin-2-yl)benzyl)-1-(2-methoxyethyl)-1H-benzo[d]imidazole-6-carboxylic acid] |
| 8.17 | 3.31 | COCCn1c(Cc2ccc(-c3cccc(OCc4ccc(C#N)cc4F)n3)cc2C#CCCO)nc2ccc(C(=O)O)cc21 [Example 255, 2-(4-(6-((4-cyano-2-fluorobenzyl)oxy)pyridin-2-yl)-2-(4-hydroxybut-1-yn-1-yl)benzyl)-1-(2-methoxyethyl)-1H-benzo[d]imidazole-6-carboxylic acid] |
| 5.33 | 30.6 | COCCn1c(Cc2ccc(-c3cccc(OCc4ccc(F)cc4)n3)cc2F)nc2ccc(C(=O)O)cc21 [Example 256, 2-(2-fluoro-4-(6-((4-fluorobenzyl)oxy)pyridin-2-yl)benzyl)-1-(2-methoxyethyl)-1H-benzo[d]imidazole-6-carboxylic acid] |
| 10.8 | 113 | COCCn1c(Cc2ccc(-c3cccc(OCc4ccc(C#N)cc4F)n3)cc2-c2cc[nH]n2)nc2ccc(C(=O)O)cc21 [Example 260, 2-(4-(6-((4-cyano-2-fluorobenzyl)oxy)pyridin-2-yl)-2-(1H-pyrazol-3-yl)benzyl)-1-(2-methoxyethyl)-1H-benzo[d]imidazole-6-carboxylic acid] |
| 8 | 184 | COCCn1c(Cc2ccc(-c3cccc(OCc4ccc(C#N)cc4F)n3)c(Br)c2)nc2ccc(C(=O)O)cc21 [Example 261, 2-(3-bromo-4-(6-((4-cyano-2-fluorobenzyl)oxy)pyridin-2-yl)benzyl)-1-(2-methoxyethyl)-1H-benzo[d]imidazole-6-carboxylic acid] |
| 7 | 91.7 | CC1(C)CC(Cn2c(Cc3ccc(-c4cccc(OCc5ccc(C#N)cc5F)n4)cc3F)nc3ccc(C(=O)O)cc32)O1 (stereo not drawn) [Example 263, 2-(4-(6-((4-cyano-2-fluorobenzyl)oxy)pyridin-2-yl)-2-fluorobenzyl)-1-((4,4-dimethyloxetan-2-yl)methyl)-1H-benzo[d]imidazole-6-carboxylic acid] |
| 4.58 | 172 | COCCn1c(Cc2ccc(-c3cccc(OCc4ccc(Cl)cc4OCC(F)(F)F)n3)cc2F)nc2ccc(C(=O)O)cc21 [Example 267, 2-(4-(6-((4-chloro-2-(2,2,2-trifluoroethoxy)benzyl)oxy)pyridin-2-yl)-2-fluorobenzyl)-1-(2-methoxyethyl)-1H-benzo[d]imidazole-6-carboxylic acid] |
| 3.67 | 15.7 | N#CCC1(Cn2c(Cc3cc(F)c(-c4ccnc(OCc5ccc(C#N)cc5F)n4)cc3F)nc3c(F)cc(C(=O)O)cc32)CC1 [Example 268, 2-(4-(2-((4-cyano-2-fluorobenzyl)oxy)pyrimidin-4-yl)-2,5-difluorobenzyl)-1-((1-(cyanomethyl)cyclopropyl)methyl)-4-fluoro-1H-benzo[d]imidazole-6-carboxylic acid] |
